In PubChem BioAssay AID720587 (Broad Institute, 2013):
Where “and” joins values, the source holds several entries; their conditions need not be identical. Equal entries are not always repeated.

test system: A673 Ewing sarcoma viability, CellTiter-Glo ATP luminescence, 72 h; experiment: EWS/Fli1-dependent A673 cell killing, confirmation, CellTiter-Glo luminescence, cherry-pick retest (AID 720587)

Structure (SMILES)	AC35
CC(C)=CCC/C(C)=C/CN1C(=O)N(c2ccc(F)cc2)[C@H]2C[C@@H](c3ccccc3)[C@@H](C)[C@@H](C(=O)N3CCOCC3)C[C@H]21	5.03 µM
O=C1/C(=C\c2ccccc2)CN(C(=O)CCN2CCCCC2)C/C1=C/c1ccccc1	0.734 µM
CC(=O)Oc1ccc(-c2ccc(C(=O)Nc3cccc(S(=O)(=O)N4CCOCC4)c3)cc2)cc1	15.3 µM
C[C@]12CC[C@H](O)C[C@H]1CC[C@@H]1C2CC[C@]2(C)[C@@H](C3=CC(=O)OC3)[C@@H](O)C[C@]12O (stereo partly specified)	5.27 µM
O=c1[nH]c(/C=C2\C=Nc3ccccc32)c(O)n1Cc1ccccc1F	3.16 µM
O=C(CCCN1C(=O)/C(=C/c2ccccc2Cl)SC1=S)NNC(=O)c1ccc(Cl)cc1	23.9 µM
C#CCOCCOCCOCCNc1nc(N2CCN(C(=O)CCCCCCCCCCNC(=O)Cn3cc(C[C@@H](C)O)nn3)CC2)nc(N2CCN(C(=O)CCCCCCCCCCNC(=O)[C@H](CO)n3cc(CCCSC)nn3)CC2)n1	13.3 µM
CCc1ccc(N2C=C(C(=O)OC)C(c3ccc(OC)cc3)C(C#N)=C2N)cc1 (stereo unspecified)	12.5 µM
COC(=O)[C@H]1[C@H](CO)[C@H]2Cn3c(ccc(-c4ccccc4F)c3=O)[C@@H]1N2CC1CCCC1	17.4 µM
CC(C)(C)C(=O)Cn1ncc(Cl)c(Cl)c1=O	2.73 µM
NC1=CC(=O)C(=O)c2cccnc21	11.1 µM
COc1ccc(C2c3cc4c(cc3OC(NNC(N)=O)C2C)OCO4)cc1 (stereo unspecified)	12.4 µM
COc1cc2oc3cc(C#Cc4ccc(N)cc4)ccc3c(=O)c2cc1OC	17.4 µM
Cc1ccccc1S(=O)(=O)N1CC[C@@H]2[C@@H](CO)Nc3ccc(-c4ccc(C#N)cc4)cc3[C@@H]21	4.47 µM
CC1(C(=O)NCc2ccco2)Cc2c(-c3cccc(C(N)=O)c3)ccnc2O1 (stereo unspecified)	5.1 µM
CC(=O)OC1CC2(O)C3CCC4CC(O)CCC4(C)C3CCC2(C)C1C1=CC(=O)OC1 (stereo unspecified)	0.213 µM
Cc1ccc(S(=O)(=O)Nc2ccc3c(c2)C(=O)N([C@@H](C)CO)C[C@@H](C)[C@@H](CN(C)Cc2ccc(C(=O)Nc4ccccc4N)cc2)O3)cc1	9.91 µM
COc1ccc(NC(=S)N=Nc2c(O)[nH]c3ccccc23)cc1	1.75 µM
COc1ccc(C2=Nn3c([n+](C)c4ccccc43)SC2)cc1	20.2 µM
COC(=O)Cc1[nH]n(-c2nc3ccccc3s2)c(=O)c1C(C)=Nc1ccc(OC)cc1	19.2 µM
Cc1c(Cl)cccc1NC(=O)CCC(=O)N/N=C/c1ccc[nH]1	6.52 µM
CCCCCCCCNC(C)C(O)c1ccc(SC(C)C)cc1 (stereo unspecified)	5.92 µM
C[C@@H]1CN([C@@H](C)CO)C(=O)c2cccc(NC(=O)CCCCCC(=O)Nc3ccccc3N)c2O[C@@H]1CN(C)Cc1ccc(Oc2ccccc2)cc1	14.8 µM

Structure (SMILES)	AC35
CCN(CC)c1ccc(C2NC(=O)c3ccccc3N2)cc1 (stereo unspecified)	21.6 µM
Cc1ccc(S(=O)(=O)Nc2ccc3c(c2)C(=O)N([C@H](C)CO)C[C@@H](C)[C@@H](CN(C)Cc2ccc(C(=O)Nc4ccccc4N)cc2)O3)cc1	11.9 µM
C[C@@H]1CCCCO[C@H](CN(C)Cc2ccc(C(=O)Nc3ccccc3N)cc2)[C@@H](C)CN([C@@H](C)CO)C(=O)c2cc(NS(=O)(=O)c3ccc(Cl)cc3)ccc2O1	8.42 µM
CCc1ccc(/C=C2\SC(=S)N(CCCC(=O)N3CCN(C)CC3)C2=O)cc1	13.1 µM
COc1ccc(OC)c(-c2nnc3n2N=C(c2ccc(OC)c(OC4CCCC4)c2)CS3)c1	2.71 µM
C[C@H]1CN([C@@H](C)CO)C(=O)c2cccc(NC(=O)CCCCCC(=O)Nc3ccccc3N)c2O[C@@H]1CN(C)Cc1ccc2c(c1)OCO2	23.6 µM
CCOc1ccc(N=C2C(=O)Nc3ccc(C)c(Br)c32)cc1	20.7 µM
O=C(Nc1ccc2c(c1)OCO2)N1C[C@@H]2N[C@H](C1)C2c1ccc(C=Cc2ccccc2)cc1 (stereo partly specified)	4.6 µM
COc1ccccc1C(CCNCc1ccc(N(C)C)cc1)c1ccc(OC(C)C)cc1 (stereo unspecified)	4.19 µM
Cc1[nH][nH]c(=O)c1C(c1c(C)[nH][nH]c1=O)c1cn(Cc2ccc(Cl)c(Cl)c2)c2ccccc12	9.8 µM
COc1ccc(/C=C2\SC(=S)N(CCCC(=O)NNC(=O)c3ccccc3O)C2=O)cc1	16.8 µM
C[C@H]1CN([C@@H](C)CO)C(=O)Cc2cc(NC(=O)CCCCCC(=O)Nc3ccccc3N)ccc2O[C@H]1CN(C)Cc1ccc(Oc2ccccc2)cc1	6.08 µM
COC(=O)C1=C(C)N(Cc2cccc(C(F)(F)F)c2)C(=NCc2ccc(OC)cc2)NC1c1cccc(F)c1 (stereo unspecified)	4.46 µM
Oc1[nH]c2ccc(Br)cc2c1N=NC(=S)N1CCOCC1	0.236 µM
CCc1nc(N)nc(N)c1-c1ccc(Cl)cc1	8.71 µM
CC(C)(C)c1ccc(Oc2ccc(NC(=O)c3ccccc3C(=O)O)cn2)cc1	22.2 µM
C[C@H](O)C#Cc1ccc2c(c1)O[C@@H](CN(C)Cc1ccc(-c3ccccc3)cc1)[C@H](C)CN([C@@H](C)CO)S2(=O)=O	5.46 µM and 7.12 µM
O=C(O)c1ccccc1C(=O)Nc1ccc(Oc2cccc3ccccc23)cc1	18.9 µM
COc1ccc(OC)c(-c2nnc3n2N=C(c2ccc(OC)c(OC4CCOC4)c2)CS3)c1 (stereo unspecified)	3.24 µM
Nc1ccc(Cn2ccc3c4c(N)nc(N)nc4ccc32)cc1	0.0589 µM
CN(C[C@H]1N[C@@H](CO)[C@@H]1c1ccc(C2=CCCC2)cc1)C(=O)c1ccc(F)cc1	4.19 µM
C[C@@H]1CN([C@H](C)CO)S(=O)(=O)c2ccc(C#CC(C)(C)O)cc2O[C@H]1CN(C)Cc1ccc(-c2ccccc2)cc1	7.19 µM
C[C@@H]1CN([C@@H](C)CO)C(=O)c2cc(NC(=O)Nc3ccccc3)ccc2O[C@@H]1CN(C)Cc1ccc(C(=O)Nc2ccccc2N)cc1	7.56 µM
